Data: patent publication US20210228566A1, “METHODS OF TREATING A NEUROLOGICAL OR PSYCHIATRIC DISORDER” (priority 2018, published 2021)

Key:
[1] = plasma concentrations of circulating metabolites; format: in vivo; details: after VBZ
[2] = target: T1, human VMAT1 transporter (Homo sapiens, UniProt P54219); test: uptake in cells expressing VMAT1; format: cell-based; details: for inhibitory activity on uptake through VMAT1: concentrations up to 10 μM
T1 construct: expressed in transfected cells
T1 sequence (P54219 1-525): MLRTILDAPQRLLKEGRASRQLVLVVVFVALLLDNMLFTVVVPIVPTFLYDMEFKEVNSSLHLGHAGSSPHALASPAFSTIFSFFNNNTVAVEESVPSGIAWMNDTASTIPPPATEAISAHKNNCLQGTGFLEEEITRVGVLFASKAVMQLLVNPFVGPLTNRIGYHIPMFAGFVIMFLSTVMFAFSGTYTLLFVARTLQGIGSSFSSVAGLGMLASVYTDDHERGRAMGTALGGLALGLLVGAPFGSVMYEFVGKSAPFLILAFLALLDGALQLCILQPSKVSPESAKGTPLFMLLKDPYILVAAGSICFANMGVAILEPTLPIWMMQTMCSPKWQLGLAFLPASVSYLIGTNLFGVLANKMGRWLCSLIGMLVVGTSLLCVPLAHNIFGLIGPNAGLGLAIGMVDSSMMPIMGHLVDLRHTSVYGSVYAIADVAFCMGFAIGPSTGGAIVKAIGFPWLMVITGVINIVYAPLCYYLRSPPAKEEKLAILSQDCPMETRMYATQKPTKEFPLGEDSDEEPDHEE
Method: None of the TBZ or VBZ metabolites had any affinity for the monoamine transporters DAT, SERT or NET. To complete the selectivity profile for VMAT2, the functional activity for the human VMAT1 transporter of these compounds was tested in cells expressing VMAT1.

[3] = ptosis, in vivo surrogate measure
[4] = prolactin release, in vivo surrogate measure
[5] = case reports of hypersensitivity and dermatological reactions; format: in vivo, human
From the text: A total of 17 cases of hypersensitivity reaction and/or dermatological findings and evidence for possible causal relationship with VBZ have been reported either spontaneously (6) or after solicitation (11). Of these 17 cases, 14 cases had both hypersensitivity reaction with dermatological findings (5 were serious and 9 were non-serious).
In these 14 cases, there was a reasonable temporal relationship between the initiation of the drug and the onset of events. In 1 case, both dechallenge and rechallenge was positive. In 2 cases, the events worsened when the drug was continued and the events resolved on discontinuation of VBZ. In 3 cases, dechallenge was considered as positive. In 7 cases, the event resolved or was resolving following discontinuation of drug and receiving appropriate treatment, implying a causal association. Additionally, among these 7 cases, there was 1 case in which the event re-occurred on readministration of the drug. In the remaining 1 case, the events started immediately after starting VBZ, the subject continued taking VBZ and the event continued; therefore, a causal association between the drug and the event could not be ruled out.
Of the 17 cases, there were 2 cases in which the patients experienced hypersensitivity reaction with evidence for a possible causal relationship with VBZ, but without dermatological findings. Both these cases were non-serious. In 1 case, dechallenge was positive and in another case, the event re-occurred with their second dose of drug, implying a causal association between the drug and the events.
Of the 17 cases, there was 1 case in which the patient experienced only dermatological findings with evidence for a possible causal relationship to VBZ, but without evidence of other hypersensitivity reaction. This case was non-serious and dechallenge was positive in this case. In view of the information reported in these 17 cases there appears to be a possible causal relationship between the events and administration of VBZ. […] 2017.
Based on the case reports received through 10 Oct.

SMILES | plasma half-life of metabolite [1] | effect on uptake through VMAT1 [2] | inhibitory activity on uptake through VMAT1 [2] | ptosis [3] | serum prolactin levels [4] | non-serious cases with hypersensitivity reaction and dermatological findings ([5]; of the 14 cases) [cases] | serious cases with hypersensitivity reaction and dermatological findings ([5]; of the 14 cases) [cases] | cases with both hypersensitivity reaction with dermatological findings ([5]; of the 17 cases) [cases] | cases of hypersensitivity reaction without dermatological findings ([5]; of the 17 cases, non-serious) [cases] | cases with only dermatological findings ([5]; of the 17 cases, non-serious) [case] | cases of hypersensitivity reaction and/or dermatological findings with evidence for possible causal relationship ([5]; reported spontaneously (6) or after solicitation (11), through 10 Oct. 2017) [cases] | severe hypersensitivity or dermatological reactions suggesting Stevens Johnson Syndrome, Toxic Epidermal Necrolysis, or Drug Rash with Eosinophilia and Systemic Symptoms ([5]; through 10 Oct. 2017)
COc1cc2c(cc1OC)[C@H]1C[C@@H](OC(=O)[C@@H](N)C(C)(C)O)[C@H](CC(C)C)CN1CC2 [NBI-136110] | half-lives similar to VBZ | no significant effect on the uptake of monoamines through VMAT1 | no significant inhibitory activity |  |  |  |  |  |  |  |  | 
COc1cc2c(cc1OC)[C@H]1C[C@@H](O)[C@H](CC(C)C)CN1CC2 [R,R,R-DHTBZ, (2R, 3R,11bR)-3-isobutyl-9,10-dimethoxy-1,3,4,6,7,11b-hexahydro-2H-pyrido[2,1-a]isoquinolin-2-ol] | half-lives similar to VBZ | no significant effect on the uptake of monoamines through VMAT1 | no significant inhibitory activity | induced ptosis in an equivalent manner | induced a similar increase in serum prolactin levels as TBZ |  |  |  |  |  |  | 
COc1cc2c(cc1OC)C1CC(=O)C(CC(C)C)CN1CC2 (stereo not shown) [TBZ, Tetrabenazine, reference compound] |  | no significant effect on the uptake of monoamines through VMAT1 | no significant inhibitory activity | induced ptosis in an equivalent manner |  |  |  |  |  |  |  | 
COc1cc2c(cc1OC)[C@H]1C[C@@H](OC(=O)[C@@H](N)C(C)C)[C@H](CC(C)C)CN1CC2 [Valbenazine, (S)-2-amino-3-methyl-butyric acid (2R, 3R,11bR)-3-isobutyl-9,10-dimethoxy-1,3,4,6,7,11b-hexahydro-2H-pyrido[2,1-a]isoquinolin-2-yl ester] |  | no significant effect on the uptake of monoamines through VMAT1 | no significant inhibitory activity | induced ptosis in an equivalent manner |  | 9 | 5 | 14 | 2 | 1 | 17 | no cases
COC(=O)[C@H]1[C@H]2C[C@@H]3c4[nH]c5cc(OC)ccc5c4CCN3C[C@H]2C[C@@H](OC(=O)c2cc(OC)c(OC)c(OC)c2)[C@@H]1OC [reserpine, reference compound] |  | substantially inhibited uptake through VMAT1 |  |  |  |  |  |  |  |  |  | 
